Experiments:
[1] = molecular target: T1, Recombinant human His-tagged Trim24-PHD-bromodomain (Homo sapiens, UniProt O15164); assay: Trim24 AlphaScreen Assay; format: binding; details: 5 nM Trim24 protein, 15 nM biotinylated H3K23ac (1-33aa) peptide
T1 construct: Recombinant human His-tagged Trim24-PHD-bromodomain (produced in-house); made in house
T1 sequence (O15164 824-1006 limits assumed): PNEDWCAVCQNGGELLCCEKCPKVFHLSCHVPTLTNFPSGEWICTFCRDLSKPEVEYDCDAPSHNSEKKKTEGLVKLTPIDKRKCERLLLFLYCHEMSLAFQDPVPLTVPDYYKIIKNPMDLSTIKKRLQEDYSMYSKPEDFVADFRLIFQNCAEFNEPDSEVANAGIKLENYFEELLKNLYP
In short: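 His-tagged Trim24-PHD-bromodomain, biotinylated H3K23ac (1-33aa) peptide and compound incubated 1 h at room temperature in 50 mM Hepes pH 7.5, 100 mM NaCl, 0.12 mM Triton X-100.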

TRIM24 = molecular target: T2, TRIM24 (Homo sapiens, UniProt O15164); assay: BROMOscan DiscoveRx Binding Constant Assay (TRIM24); details: qPCR readout
T2 construct: purchased DiscoveRx (BROMOscan); host or cells: T7 phage in E. coli host derived from BL21
T2 sequence (O15164 899-1004 limits assumed): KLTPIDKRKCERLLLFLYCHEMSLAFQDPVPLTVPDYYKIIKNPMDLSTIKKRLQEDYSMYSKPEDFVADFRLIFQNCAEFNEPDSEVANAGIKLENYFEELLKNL
Description: (§1) Compounds that bind the bromodomain active site and directly (sterically) or indirectly (allosterically) prevent bromodomain binding to the immobilized ligand, will reduce the amount of protein captured on the solid support (Panels A & B). […] Screening “hits” are identified by measuring the amount of bromodomain captured in test versus control samples by using a quantitative, precise and ultra-sensitive qPCR method that detects the associated DNA label. In a similar manner, dissociation constants (Kd's) for test compound-bromodomain interactions are calculated by measuring the amount of bromodomain captured on the solid support as a function of the test compound concentration.
(§2) Bromodomain assays. T7 phage strains displaying bromodomains were grown in parallel in 24-well blocks in an E. coli host derived from the BL21 strain. E. coli were grown to log-phase and infected with T7 phage from a frozen stock (multiplicity of infection=0.4) and incubated with shaking at 32° C. until lysis (90-150 minutes). The lysates were centrifuged (5,000×g) and filtered (0.2 μm) to remove cell debris. Streptavidin-coated magnetic beads were treated with biotinylated small molecule or acetylated peptide ligands for 30 minutes at room temperature to generate affinity resins for bromodomain assays. The liganded beads were blocked with excess biotin and washed with blocking buffer (SeaBlock (Pierce), 1% BSA, 0.05% Tween 20, 1 mM DTT) to remove unbound ligand and to reduce non-specific phage binding. […] Test compounds were prepared as 1000× stocks in 100% DMSO and subsequently diluted 1:10 in monoethylene glycol (MEG) to create stocks at 100× the screening concentration (resulting stock solution is 10% DMSO/90% MEG). The compounds were then diluted directly into the assays such that the final concentration of DMSO and MEG were 0.1% and 0.9%, respectively. All reactions were performed in polystyrene 96-well plates in a final volume of 0.135 ml.
(§3) The beads were then re-suspended in elution buffer (lx PBS, 0.05% Tween 20, 2 μM nonbiotinylated affinity ligand) and incubated at room temperature with shaking for 30 minutes. The bromodomain concentration in the eluates was measured by qPCR.
(§4) An 11-point 3-fold serial dilution of each test compound was prepared in 100% DMSO at 1000× final test concentration. This serial is then diluted to 100× in ethylene glycol and subsequently diluted to 1× in the assay (final DMSO concentration=0.1%, Ethylene glycol concentration=0.9%). […] If the initial Kd determined was <0.169 nM (the lowest concentration tested), the measurement was repeated with a serial dilution starting at a lower top concentration.
(§5) Binding constants (Kd's) were calculated with a standard dose-response curve using the Hill equation: Response=Background+Signal−Background 1+(Kd Hill Slope/DoseHill Slope) The Hill Slope was set to −1. Curves were fitted using a non-linear least square fit with the Levenberg-Marquardt algorithm.

BRPF1 = molecular target: T3, BRPF1 (Homo sapiens, UniProt P55201); assay: BROMOscan DiscoveRx Binding Constant Assay (BRPF1); details: qPCR readout
T3 construct: purchased DiscoveRx (BROMOscan); host or cells: T7 phage in E. coli host derived from BL21
T3 sequence (P55201 628-732 limits assumed): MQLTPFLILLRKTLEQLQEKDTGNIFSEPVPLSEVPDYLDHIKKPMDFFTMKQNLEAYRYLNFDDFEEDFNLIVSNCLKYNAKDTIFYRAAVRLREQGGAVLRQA
Description: as §1, §2, §3, §4, §5

BRPF2 = molecular target: T4, BRPF2 (Homo sapiens, UniProt O95696); assay: BROMOscan DiscoveRx Binding Constant Assay (BRPF2); details: qPCR readout
T4 construct: purchased DiscoveRx (BROMOscan); host or cells: T7 phage in E. coli host derived from BL21
T4 sequence (O95696 562-666 limits assumed): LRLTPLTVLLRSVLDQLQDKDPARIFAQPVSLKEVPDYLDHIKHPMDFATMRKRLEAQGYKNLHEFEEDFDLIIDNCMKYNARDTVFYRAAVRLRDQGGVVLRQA
Description: as §1, §2, §3, §4, §5

BRPF3 = molecular target: T5, BRPF3 (Homo sapiens, UniProt Q9ULD4); assay: BROMOscan DiscoveRx Binding Constant Assay (BRPF3); details: qPCR readout
T5 construct: purchased DiscoveRx (BROMOscan); host or cells: T7 phage in E. coli host derived from BL21
T5 sequence (Q9ULD4 589-693 limits assumed): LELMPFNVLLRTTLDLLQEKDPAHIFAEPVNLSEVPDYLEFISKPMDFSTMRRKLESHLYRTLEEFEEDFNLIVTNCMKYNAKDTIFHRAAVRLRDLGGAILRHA
Description: as §1, §2, §3, §4, §5

Row | SMILES | IC50 [1] | Kd (TRIM24) | Kd (BRPF1) | Kd (BRPF2) | Kd (BRPF3)
1 | COCCCOc1cccc(Oc2cc3c(cc2NS(=O)(=O)c2cn(C)c(C)n2)n(C)c(=O)n3C)c1 [Example 46, N-(6-(3-(3-methoxypropoxy)phenoxy)-1,3-dimethyl-2-oxo-2,3-dihydro-1H-benzo[d]imidazol-5-yl)-1,2-dimethyl-1H-imidazole-4-sulfonamide] | 100 to 1000 nM | 11 to 100 nM | 11 to 100 nM | 11 to 100 nM | > 100 nM
2 | CCCOc1cc(OCCCCCCN)cc(Oc2cc3c(cc2NS(=O)(=O)c2cn(C)cn2)n(C)c(=O)n3C)c1 [Example 8, N-(6-(3-((6-aminohexyl)oxy)-5-propoxyphenoxy)-1,3-dimethyl-2-oxo-2,3-dihydro-1H-benzo[d]imidazol-5-yl)-1-methyl-1H-imidazole-4-sulfonamide 2,2,2-trifluoroacetate] | 1 to 10 nM | < 1 nM | 1 to 10 nM | 1 to 10 nM | 11 to 100 nM
3 | Cn1c(=O)n(C)c2cc(Oc3cccc(OCC(F)(F)F)c3)c(NS(=O)(=O)c3cccnc3)cc21 [Example 125, N-(1,3-dimethyl-2-oxo-6-(3-(2,2,2-trifluoroethoxy)phenoxy)-2,3-dihydro-1H-benzo[d]imidazol-5-yl)pyridin-3-sulfonamide] | 10 to 100 nM | 1 to 10 nM | 1 to 10 nM | 1 to 10 nM | 11 to 100 nM
4 | Cc1nc(S(=O)(=O)Nc2cc3c(cc2Oc2cccc(OCC(C)C)c2)n(C)c(=O)n3C)cn1C [Example 45, N-(6-(3-isobutoxyphenoxy)-1,3-dimethyl-2-oxo-2,3-dihydro-1H-benzo[d]imidazol-5-yl)-1,2-dimethyl-1H-imidazole-4-sulfonamide] | 10 to 100 nM | 1 to 10 nM | 11 to 100 nM | 11 to 100 nM | 11 to 100 nM
5 | CCCOc1cc(OCCCOC)cc(Oc2cc3c(cc2NS(=O)(=O)c2cccc(C#N)c2)n(C)c(=O)n3C)c1 [Example 165, 3-cyano-N-(6-(3-(3-methoxypropoxy)-5-propoxyphenoxy)-1,3-dimethyl-2-oxo-2,3-dihydro-1H-benzo[d]imidazol-5-yl)benzenesulfonamide] | 10 to 100 nM | – | – | – | –
6 | Cc1nc(S(=O)(=O)Nc2cc3c(cc2Oc2cccc(OCCCO)c2)n(C)c(=O)n3C)cn1C [Example 55, N-(6-(3-(3-hydroxypropoxy)phenoxy)-1,3-dimethyl-2-oxo-2,3-dihydro-1H-benzo[d]imidazol-5-yl)-1,2-dimethyl-1H-imidazole-4-sulfonamide] | 100 to 1000 nM | – | – | – | –
7 | CCCOc1cc(OCCCN)cc(Oc2cc3c(cc2NS(=O)(=O)c2ccc(OC)c(OC)c2)n(C)c(=O)n3C)c1 [Example 216, N-(6-(3-(3-aminopropoxy)-5-propoxyphenoxy)-1,3-dimethyl-2-oxo-2,3-dihydro-1H-benzo[d]imidazol-5-yl)-3,4-dimethoxybenzenesulfonamide] | 10 to 100 nM | – | – | – | –
8 | CCCOc1cc(OCCCOC)cc(Oc2cc3c(cc2NS(=O)(=O)c2ccc(OC)cc2)n(C)c(=O)n3C)c1 [Example 157, 4-methoxy-N-(6-(3-(3-methoxypropoxy)-5-propoxyphenoxy)-1,3-dimethyl-2-oxo-2,3-dihydro-1H-benzo[d]imidazol-5-yl)benzenesulfonamide] | 100 to 1000 nM | – | – | – | –

Further lines, results first:

Row | IC50 [1] | Kd (TRIM24) | Kd (BRPF1) | Kd (BRPF2) | Kd (BRPF3) | SMILES
9 | 10 to 100 nM | 1 to 10 nM | 1 to 10 nM | 11 to 100 nM | 11 to 100 nM | CCCOc1cccc(Oc2cc3c(cc2NS(=O)(=O)c2ccc(OC)c(OC)c2)n(C)c(=O)n3C)c1 [Example 110, N-(1,3-dimethyl-2-oxo-6-(3-propoxyphenoxy)-2,3-dihydro-1H-benzo[d]imidazol-5-yl)-3,4-dimethoxybenzenesulfonamide]
10 | 10 to 100 nM | – | – | – | – | CCCOc1cc(OCCCOC)cc(Oc2cc3c(cc2NS(=O)(=O)c2cn(C)cn2)n(C)c(=O)n3C)c1 [Example 152, N-(6-(3-(3-methoxypropoxy)-5-propoxyphenoxy)-1,3-dimethyl-2-oxo-2,3-dihydro-1H-benzo[d]imidazol-5-yl)-1-methyl-1H-imidazole-4-sulfonamide]
11 | 100 to 1000 nM | – | – | – | – | Cn1cnc(S(=O)(=O)Nc2cc3c(cc2Oc2cccc(OCC#N)c2)n(C)c(=O)n3C)c1 [Example 76, N-(6-(3-(cyanomethoxy)phenoxy)-1,3-dimethyl-2-oxo-2,3-dihydro-1H-benzo[d]imidazol-5-yl)-1-methyl-1H-imidazole-4-sulfonamide]
12 | 100 to 1000 nM | – | – | – | – | CCCOc1cc(OCCCCCCNC(=O)OC(C)(C)C)cc(Oc2cc3c(cc2NS(=O)(=O)c2cn(C)cn2)n(C)c(=O)n3C)c1 [Example 119, tert-butyl (6-(3-((1,3-dimethyl-6-((1-methyl-1H-imidazole)-4-sulfonamido)-2-oxo-2,3-dihydro-1H-benzo[d]imidazol-5-yl)oxy)-5-propoxyphenoxy)hexyl)carbamate]
